Patent publication US4582821A, “Inhibition of cyclic nucleotide independent protein kinases” (E. I. Du Pont de Nemours and Company, priority 1983, dated 1986)
Peptide text beside a SMILES is read from it. * marks the point of attachment. Cbz = O=C(OCc1ccccc1)*; CH2Cl = ClC*

Assays:
[1] = test system: pp60^src; settings: Richert et al., Cell 18:369 (1979); cited from earlier work
[2] = test system: ASV-transformed cells; settings: Weber, Cell 5:253 (1975); cited from earlier work
[3] = test system: A-431 plasma membrane extracts (EGF-mediated protein phosphorylation); test: Protein phosphorylation in solubilized A-431 plasma membrane extracts, with or without EGF; assay type: biochemical, human; settings: 477 nmol/mg protein
Description: The capacity of certain peptide halomethyl ketones to inhibit protein phosphorylation is illustrated by Examples 1-8, below, in which solubilized plasma membranes prepared from A-431 human epidermoid carcinoma cells were incubated with [γ-^32 P] ATP in the presence of EGF.
A-431 human epidermoid carcinoma cells were grown in Dulbecco's modified Eagle's medium containing 5% fetal calf serum. Plasma membranes were isolated by a method substantially similar to that described by Thom et al., Biochem J. 168:187 (1977), and kept at -70°. Solubilization of plasma membranes was performed substantially as described by Cohen et al., J. Biol. Chem. 255:4834 (1980). In this procedure, 7.5 mg/mL protein was solubilized with 5% Triton X-100 (octylphenol), 10% glycerol, and 20 mM Hepes buffer (N-2-hydroxyethylpiperazine-N^1 -2-ethanesulfonic acid), pH 7.4. This mixture was incubated for 20 minutes at about 23°, followed by centrifugation at 100,000 xg for 60 minutes.
(§1) Protein phosphorylation assays were conducted substantially as described by Carpenter et al., J. Biol. Chem. 254:4884 (1979). Each assay mixture contained, in a final volume of 70 μL: 20 mM Hepes, pH 7.4, 0.01% bovine serum albumin (BSA), 15-150 μg protein in Triton extract, 100 ng EGF, 1 mM MnCl2 and 10-20 μM [γ-^32 P] ATP (2-4 μCi). Peptide halomethyl ketones were added as solutions in ethanol; an equivalent volume of ethanol was added to controls. Assay mixtures were incubated at about 23° for ten minutes, with or without added EGF. Mixtures were then held at 0° for ten minutes before initiation of phosphorylation by addition of 15 μM γ-^32 P) ATP (2 μCi). Reactions were terminated after 3 minutes at 0° by applying an aliquot of the assay mixture to a Whatman 3MM filter paper (2×2 cm), which was then suspended in ice-cold 10% trichloroacetic acid containing 10 mM pyrophosphate. This suspension was gently shaken for a period of 1 hour, during which the trichloroacetic acid/pyrophosphate mixture was changed three times. Finally, the filter papers were dried and radioactivity measured by scintillation counting.

[4] = molecular target: T1, A-431 cell EGF receptor (Homo sapiens, UniProt P00533); test: Protein phosphorylation of A-431 cell membrane EGF receptors (intact membranes, EGF present); assay type: biochemical; settings: 600 nmoles/mg protein, intact A-431 membranes
T1 construct: intact A-431 cell membranes were employed, rather than solubilized extracts; endogenous in cells; host or cells: A-431 human epidermoid carcinoma cells (plasma membranes)
T1 sequence (P00533 25-1210): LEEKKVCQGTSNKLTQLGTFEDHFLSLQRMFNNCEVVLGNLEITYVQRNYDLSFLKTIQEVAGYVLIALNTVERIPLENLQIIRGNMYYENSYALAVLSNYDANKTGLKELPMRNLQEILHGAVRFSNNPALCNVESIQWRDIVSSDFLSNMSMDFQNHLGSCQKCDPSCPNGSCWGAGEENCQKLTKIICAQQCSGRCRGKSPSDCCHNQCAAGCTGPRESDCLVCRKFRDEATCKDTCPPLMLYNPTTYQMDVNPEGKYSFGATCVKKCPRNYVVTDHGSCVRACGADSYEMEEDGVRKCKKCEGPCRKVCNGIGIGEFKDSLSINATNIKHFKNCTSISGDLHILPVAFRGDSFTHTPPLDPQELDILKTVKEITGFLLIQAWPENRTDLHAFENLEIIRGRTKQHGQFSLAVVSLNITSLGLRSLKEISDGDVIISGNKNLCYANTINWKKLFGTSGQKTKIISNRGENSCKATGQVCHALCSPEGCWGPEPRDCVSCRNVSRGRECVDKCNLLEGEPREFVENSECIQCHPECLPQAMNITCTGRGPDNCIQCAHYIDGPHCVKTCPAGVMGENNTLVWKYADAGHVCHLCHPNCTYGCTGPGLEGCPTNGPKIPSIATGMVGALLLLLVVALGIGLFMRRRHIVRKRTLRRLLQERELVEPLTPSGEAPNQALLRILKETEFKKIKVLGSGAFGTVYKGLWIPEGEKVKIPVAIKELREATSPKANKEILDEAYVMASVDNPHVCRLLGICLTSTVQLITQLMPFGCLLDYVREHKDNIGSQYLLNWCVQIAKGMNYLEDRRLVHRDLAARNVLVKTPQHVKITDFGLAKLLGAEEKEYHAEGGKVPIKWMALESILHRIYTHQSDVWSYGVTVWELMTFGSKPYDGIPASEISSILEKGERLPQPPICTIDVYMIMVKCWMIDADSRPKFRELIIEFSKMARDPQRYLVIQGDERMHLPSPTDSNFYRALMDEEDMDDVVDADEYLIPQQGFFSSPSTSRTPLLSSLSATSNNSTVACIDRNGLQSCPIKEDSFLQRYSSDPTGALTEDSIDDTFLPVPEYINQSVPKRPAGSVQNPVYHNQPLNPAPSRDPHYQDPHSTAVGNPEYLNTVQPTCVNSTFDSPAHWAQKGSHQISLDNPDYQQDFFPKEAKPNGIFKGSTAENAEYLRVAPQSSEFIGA
Description: as §1
Assays were conducted substantially as described above, except intact A-431 cell membranes were employed, rather than solubilized extracts, and assay mixtures contained 1 mM ouabain. In these Examples, reactions were permitted to proceed for 6 minutes. This technique is substantially similar to that disclosed by Navarro et al., Biochemistry, 21:6138 (1982).

[5] = test system: lymphoma cell line MOLT-4; test: Tumor cell line growth inhibition, MOLT-4; assay type: cell-based
Description: (§2) In this series of experiments, the tumor cell growth inhibitory capacity of various peptide halomethyl ketones was tested against lymphoma cell lines YAC-1 and MOLT-4, and against an erythroleukemia cell line, K-562. The lymphoma cell line YAC-1 is described by Kiessling, et al., Eur. J. Immunol. 5:112 (1975), and MOLT-4 is described by Minowada, et al., J. Natl. Cancer Inst. 49:891 (1972) and Nilsson, et al., Int. J. Cancer 15:321 (1975). The erythroleukemia cell line K-562 is described by Lozzio, et al., Leuk. Res. 3:363 (1979). In these experiments, cells were grown on standard media as 10 mL suspension cultures. Initial cell density was 10^5 cells/mL. At day 0, test compounds were introduced in ethanol; control cultures received an equal volume of ethanol. Cells were counted at the times indicated.

[6] = test system: erythroleukemia cell line K-562; test: Tumor cell line growth inhibition, K-562; assay type: cell-based
Description: as §2

[7] = test system: lymphoma cell line YAC-1; test: Tumor cell line growth inhibition, YAC-1; assay type: cell-based
Description: as §2

| % inhibition [4] [%] | SMILES | % Growth Relative to Control Cultures ([5]; 0.4 μg/mL, day 1) [%] | % Growth Relative to Control Cultures ([5]; 0.4 μg/mL, day 2) [%] | % Growth Relative to Control Cultures ([5]; 2.0 μg/mL, day 1) [%] | % Growth Relative to Control Cultures ([5]; 2.0 μg/mL, day 2) [%] | % Growth Relative to Control Cultures ([5]; 2.0 μg/mL, day 3) [%] | % Growth Relative to Control Cultures ([5]; 2.0 μg/mL, day 4) [%] | % Growth Relative to Control Cultures ([5]; 10. μg/mL, day 2) [%] | % Growth Relative to Control Cultures ([5]; 10. μg/mL, day 3) [%] | % Growth Relative to Control Cultures ([5]; 10. μg/mL, day 4) [%] | % Growth Relative to Control Cultures ([5]; 10. μg/mL, day 7) [%] | % Growth Relative to Control Cultures ([6]; 0.4 μg/mL, day 3) [%] | % Growth Relative to Control Cultures ([6]; 2.0 μg/mL, day 1) [%] | % Growth Relative to Control Cultures ([6]; 2.0 μg/mL, day 2) [%] | % Growth Relative to Control Cultures ([6]; 2.0 μg/mL, day 3) [%] | % Growth Relative to Control Cultures ([6]; 2.0 μg/mL, day 4) [%] | % Growth Relative to Control Cultures ([6]; 10. μg/mL, day 2) [%] | % Growth Relative to Control Cultures ([6]; 10. μg/mL, day 3) [%] | % Growth Relative to Control Cultures ([6]; 10. μg/mL, day 4) [%] | % Growth Relative to Control Cultures ([6]; 10. μg/mL, day 7) [%] | also measured |
| --- | --- | --- | --- | --- | --- | --- | --- | --- | --- | --- | --- | --- | --- | --- | --- | --- | --- | --- | --- | --- | --- |
|  | Cc1ccc(S(=O)(=O)N[C@@H](CCCCN)C(=O)CCl)cc1 [TLCK, N-α-tosyl-L-lysyl chloromethyl ketone] |  |  |  |  |  |  |  |  |  |  |  |  |  |  |  |  |  |  |  | in vivo protein phosphorylation activity associated with pp60src (in words) [1]: observed to inhibit; phenotype of ASV-transformed cells upon treatment (in words) [2]: phenotypic reversion of ASV-transformed cells to normal |
| 7 | CC(C)C[C@H](NC(=O)OC(C)(C)C)C(=O)CCl [Boc-LeuCH2 Cl] | 73 | 86 | 47 | 28 | 10 | 11 | 38 | 3 | 3 | 4 | 53 | 17 | 31 | 8 | 15 | 17 | 3 | 6 | 3 | % inhibition, EGF Added ([3]; EGF added): 28%; EGF Added (pmol 32P incorporated/min/mg protein) ([3]; EGF added, control 96.2): 69.0 pmol^32 P incorporated/min/mg; % inhibition, No EGF Added ([3]; no EGF): 48%; No EGF Added (pmol 32P incorporated/min/mg protein) ([3]; no EGF, control 21.6): 11.3 pmol^32 P incorporated/min/mg; % Growth Relative to Control Cultures ([5]; 0.4 μg/mL, day 3): 73%; % Growth Relative to Control Cultures ([5]; 0.4 μg/mL, day 7): 86%; % Growth Relative to Control Cultures ([5]; 2.0 μg/mL, day 7): 63%; % Growth Relative to Control Cultures ([6]; 0.4 μg/mL, day 1): 47%; % Growth Relative to Control Cultures ([6]; 2.0 μg/mL, day 7): 37%; % Growth Relative to Control Cultures ([6]; 10. μg/mL, day 1): 8% |
| 54 | CC(C)C[C@H](NC(=O)[C@H](CO)NC(=O)CNC(=O)[C@H](Cc1ccccc1)NC(=O)OCc1ccccc1)C(=O)CCl [Z--Phe-Gly-Ser-LeuCH2 Cl, Z-Phe-Gly-Ser-LeuCH2 Cl] (Cbz-FGSL-CH2Cl) | 77 | 40 | 42 | 27 | 87 | 74 | 17 | 76 | 29 | 49 | 27 | 66 | 13 | 38 | 40 | 14 | 17 | 20 | 65 | % Growth Relative to Control Cultures ([7]; 0.4 μg/mL, day 2): 63%; % Growth Relative to Control Cultures ([7]; 0.4 μg/mL, day 3): 68%; % Growth Relative to Control Cultures ([7]; 0.4 μg/mL, day 4): 74%; % Growth Relative to Control Cultures ([7]; 0.4 μg/mL, day 7): 61%; % Growth Relative to Control Cultures ([7]; 2.0 μg/mL, day 2): 80%; % Growth Relative to Control Cultures ([7]; 2.0 μg/mL, day 3): 60%; % Growth Relative to Control Cultures ([7]; 2.0 μg/mL, day 4): 66%; % Growth Relative to Control Cultures ([7]; 2.0 μg/mL, day 7): 75%; % Growth Relative to Control Cultures ([7]; 10. μg/mL, day 1): 62%; % Growth Relative to Control Cultures ([7]; 10. μg/mL, day 2): 40%; % Growth Relative to Control Cultures ([7]; 10. μg/mL, day 4): 40%; % Growth Relative to Control Cultures ([7]; 10. μg/mL, day 7): 64%; % Growth Relative to Control Cultures ([5]; 10. μg/mL, day 1): 38%; % Growth Relative to Control Cultures ([6]; 0.4 μg/mL, day 2): 28%; % Growth Relative to Control Cultures ([6]; 0.4 μg/mL, day 4): 49%; % Growth Relative to Control Cultures ([6]; 0.4 μg/mL, day 7): 81% |
